Entries after “also recorded” stand apart in the source; their conditions may differ.

For one data set, the system named is Picual olives. The experiment in a line: Application of strigolactone analogs by irrigation to olive seedlings. The following applies: irrigation to roots twice a week for 6 weeks, 0.03 and 0.3 μM, vs control. In kind it is in vivo, Olea europaea L. The method, then:
The effect of application of various analogues of strigolactone (SL) on olives, given to roots by irrigation was examined. Three different SL analogs; […] The seedlings were rooted from cuttings and hardened, and were about 6 months old at the time of the experiment. Growth soil mixture was used as in the nursery. Each strigolactone analog was dissolved in acetone to give a 5.6 mM solution. This solution was then further diluted with distilled water to 0.03 and 0.3 μM. The diluted solution was injected to the roots twice a week for 6 weeks, and subsequently all the growing buds were counted. For each treatment (treated and control groups) 10 plants were measured. Experiments were repeated three times.

The test system of the next data set is olive cuttings. The experiment in a line: Plate bioassay of bud outgrowth in olive cuttings. In kind it is in vivo, Olea europaea L. The method, then: For the purpose of determining whether the active SL analogs may be used as effective repressors of shoot branching by application on the stem itself, a bioassay examining SL analogs effect on shoot branching in vitro was established. Olive seedlings were grown in greenhouse under controlled temperature of 23° C. Partitioned plates containing ½ Murashige and Skoog (MS) solidified with 1.5% w/v agar were prepared. After solidification, the center plastic area (2 cm) of the plate was removed by scalpel. Olive seedlings were cut between the second and fourth node, and the cuttings were surface-sterilized by 70% ethanol and 1% sodium hypochlorite treatment, and then placed on the plates containing the agar media. The SL analog EGO10 was mixed with ½MS in agar, cubes were cut (1.5 cm area) and positioned at the base of the cutting in the plates (FIG. 4A). Olive seedlings treated with acetone at the same concentrations used in the EGO10 treatments represented the experimental controls. Plates were sealed in two sides only by saran wrap in order to prevent accumulation of gases. The plates were positioned in an upright 90° position and incubated at 22° C. under a photoperiod of 16 hours light followed by 8 hours dark. Photographs were taken every 3 days until day 12 by binocular. Each treatment included eight replicates. […] Bud outgrowth was measured (FIG. 4C) by Image J software and the length of the bud minus its length at the first day following application was calculated. Means of replicates were subjected to statistical analysis by using the IMP statistical package.
The ability of EGO10, applied to olive seedling cuttings through the bark of the stem, to reduce bud outgrowth was examined. An agar tube containing EGO10 was placed on the bark of the cutting (FIG. 6A). Additionally, for increased penetration of the hormone analog, the bark was scratched and the ability of EGO10 to reduce bud outgrowth in comparison to EGO10 application to non-scratched bark was tested.
As a next step in the development of SL application technology, different substances that can serve as media supporting the diffusion of SLs though the bark of plants were examined. As agar usually contains nutritional compounds, bacteria and fungi can easily contaminate agar cubes. Therefore, other substances were examined, as described hereinbelow. Experiments were performed similarly to those described in Example 3 above, by application of EGO10 in different media on the cutting bark, in plates. Bud outgrowth was monitored as described above.
Based on the results above, 30% HPC were mixed with two different concentrations of EGO10; 5 and 10 μM, and applied on the stem of olive seedling (FIG. 10). Bud outgrowth was monitored as described above and the results were compared to those obtained upon using agar cubes (described in Example 3), which served as a positive control.
In an attempt to improve HPC suitability to the examined system, HPC was mixed with glycerin in the ratio of 3:1. Glycerin, as a known humectant, has the capability to moist materials. In exemplary procedures, 5 μM EGO10 were added to the HPC and glycerin mixture, and then placed on the bark of olive cuttings. Bud outgrowth was monitored as described above.
A number of additional possible substances suitable as media for EGO10 application were screened, including polyvinyl acetate (PVAc), polyvinyl pyrrolidone (PVP) and hydroxy ethyl cellulose (HEC). The polymers were used at concentrations of 30% in water, however, as 30% PVP was not solid, it could not be tested. Accordingly, HEC and PVAc were examined for their ability to support EGO10 activity. Bud outgrowth was calculated as described above.

Another data set relates to Roses (Rosa Hybrida). The experiment in a line: EGO10 collar application to roses. The class given is in vivo. The method, then:
Three replicates on experiments were done in two commercial plots. EGO10 was applied at the indicated concentrations as a collar in Eppendorf tube (FIG. 24).
HPC+glycerin and EGO10 (25 or 50 μM), provided in rigid tubes, were applied as described above (Example 13) to roses (Rosa hybrid golden gate). 20 days following application of the formulation by the delivery device, the length of axillary buds (in centimeters) was measured and the number of lateral buds was counted.

The test system of another data set is Koroneiki olives. The experiment in a line: EGO10 collar and granules application to Koroneiki olives. The class given is in vivo, Olea europaea L. The settings on record: collar of 50 μM. As for the experimental part: Since Koroneiki olives are one of the most abundant cultivars worldwide, the effect of application of collar of 50 μM and granules that release 3×10^−8 M on development of side branches in this cultivar was examined.

For data set [1], the system named is Tomato (Shirez, Ikram cultivars). The experiment in a line: EGO10 collar, irrigation and granules application to greenhouse tomato. The class given is in vivo, Solanum lycopersicum. The settings on record: for side branches: collar of 500 μM; for side branch weight: collars 25 and 50 μM. An excerpt: Greenhouse tomato (Shirez, Ikram and other cultivars) are one of the crops that necessitate vast investment in the constant trimming of side branches. Hand labor is needed for this trimming, on an everyday basis, to avoid significant yield loses. The constant trimming is a cause for infection at trimming sites. […] For these experiments two cultivars of greenhouse tomato were used, Ikram and Shirez, both vigorously producing side branches that should be trimmed under commercial growth conditions.
Also, treatments that include irrigation with 3×10^−6 M (once a week for 6 weeks, 5 ml) and granules application (controlled release at that same concentration of 3×10^−6 M) were applied. Each treatment consisted of 20 plants, blocks of 4 plants were randomly distributed in the greenhouse.
Following, and to increase the possible effect of EGO10 on tomato branching, additional experiment was performed with tomato plants were treated with collar of 500 μM EGO10.

Another data set relates to Tomato (Ikram cultivar). The experiment in a line: EGO10 collar combined with auxin spray on tomato. The class given is in vivo, Solanum lycopersicum. As for the experimental part: The effect of EGO 10 combined with auxin was tested. […] Collar was applied 50 μM of EGO10 (FIG. 32) with a auxin daily spray (IAA) 5 ppm on the shoot tip. Also treatment with only the 50 μM collar of EGO10, an IAA treatment with no collar as a control for the auxin treatment and a control with no treatment were applied. Each treatment consisted of 10-12 plants, blocks of 4 plants were randomly distributed in the greenhouse.

For the molecule `CC1=C[C@H](O/C=C2\Cc3c(n(C)c4ccccc34)C2=O)OC1=O` [EGO10], the “number of growing buds / lateral branches” value in the data set with Picual olives was “repressing effect on axillary branch growth similar to that of GR24”. Also, the bud outgrowth result in the data set on olive cuttings (5 μM in 30% HEC on the bark) was “did not”; in the data set on olive cuttings (5 μM in 30% PVAc on the bark) it was “supported EGO10 activity of bud outgrowth inhibition”; in the data set with olive cuttings (5 μM in HPC mixed with glycerin (3:1) on the bark, until day 12), “inhibited bud outgrowth throughout the experimental period”; with olive cuttings (5 μM in PVA:HEC (2:1) on the bark), “did not sufficiently support EGO10 ability to act to inhibit bud outgrowth”; in the data set on olive cuttings (5 μM in PVA:PVP (2:1) on the bark), “did not sufficiently support EGO10 ability to act to inhibit bud outgrowth”; in the data set on olive cuttings (5 μM in agar cube at the base of the cutting, day 12, vs acetone control), “marked reduction in bud outgrowth”. For the same molecule, the bud outgrowth result is “significant reduction in bud outgrowth; also recorded: reduced bud outgrowth throughout the entire experimental period” with olive cuttings (5 μM in agar cube on the bark, 96, 168 and 264 h, vs acetone control); “reduced bud outgrowth until day 4 post application” in the data set with olive cuttings (5 and 10 μM in 30% HPC on the stem). In the data set with Roses (Rosa Hybrida) (25 or 50 μM with HPC+glycerin, collar in rigid tubes, 20 days), the lateral branching result was “clear tendency of reduction of lateral branching”. The “development of water branches” value in the data set on Roses (Rosa Hybrida) (collar, 25 or 50 μM) is on record as “did not hinder development”. Moreover, in the data set with Koroneiki olives, the side branches development result was “effective in preventing side branches development”. Further, the “yield determined as number of fruit” value in data set [1] (Ikram, EGO10 treated plants) was “increased”. Besides, the side branches entry is given as “significant reduction in side branches” in data set [1] (Ikram) and “did not respond” in data set [1] (Shirez). Also, the side branch weight result in data set [1] (Ikram) is listed as “reduced to some extent branching”; in data set [1] (Shirez, irrigation, granules), “did not change significantly branching”. In addition, the “bud outgrowth above the collar” value with Tomato (Ikram cultivar) (50 μM collar only) was “more moderate and not consistent respond”; in the data set with Tomato (Ikram cultivar) (50 μM collar with auxin (IAA) daily spray 5 ppm) it was “clear inhibition of bud outgrowth”.

These data come from patent US20180235213A1, “PLANT HORMONE APPLICATION” (The State of Israel Ministry of Agriculture & Rural …, priority 2015, published 2018).
